Test results published in patent publication US20100298141A1, “SUBSTITUTED PYRIDINE N-OXIDE HERBICIDES” (E. I. DU PONT DE NEMOURS AND COMPANY, priority 2007, published 2010).

Legend:
barnyardgrass [1] = assay: Test C flooded paddy test; type: in vivo, Echinochloa crus-galli; conditions: Flood
Summary of the method: (§1)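 Flooded 3 cm over soil; compound into paddy water; depth kept constant. Greenhouse 13–15 d.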

umbrella sedge = assay: Test C flooded paddy test; type: in vivo, Cyperus difformis; conditions: Flood
Summary of the method: as §1

barnyardgrass [2] = assay: Test A pre-/postemergence greenhouse test; type: in vivo, Echinochloa crus-galli; conditions: for Plant response rating, Barnyardgrass: 0 to 100 scale where 0 is no effect and 100 is complete control; for Barnyardgrass plant response rating: 0 to 100 scale
Summary of the method: (§2)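 Seeds sown in a loam soil–sand blend got a preemergence directed soil spray of compound in a non-phytotoxic solvent mixture containing surfactant. Postemergence sprays of the same formulation went at the same time onto plants 2–10 cm tall at the one- to two-leaf stage. Injury was scored visually against untreated controls after about ten days in the greenhouse.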

corn = assay: Test A pre-/postemergence greenhouse test; type: in vivo, Zea mays; conditions: for Plant response rating, Corn: 0 to 100 scale where 0 is no effect and 100 is complete control; for Corn plant response rating: 0 to 100 scale
Summary of the method: as §2

morningglory = assay: Test A pre-/postemergence greenhouse test; type: in vivo, Ipomoea spp.; conditions: for Plant response rating, Morningglory: 0 to 100 scale where 0 is no effect and 100 is complete control; for Morningglory plant response rating: 0 to 100 scale
Summary of the method: as §2

velvetleaf = assay: Test A pre-/postemergence greenhouse test; type: in vivo, Abutilon theophrasti; conditions: for Plant response rating, Velvetleaf: 0 to 100 scale where 0 is no effect and 100 is complete control; for Velvetleaf plant response rating: 0 to 100 scale
Summary of the method: as §2

giant foxtail = assay: Test A pre-/postemergence greenhouse test; type: in vivo, Setaria faberi; conditions: for Plant response rating, Foxtail, Giant: 0 to 100 scale where 0 is no effect and 100 is complete control; for Foxtail, Giant plant response rating: 0 to 100 scale
Summary of the method: as §2

redroot pigweed = assay: Test A pre-/postemergence greenhouse test; type: in vivo, Amaranthus retroflexus; conditions: for Plant response rating, Pigweed: 0 to 100 scale where 0 is no effect and 100 is complete control; for Pigweed plant response rating: 0 to 100 scale
Summary of the method: as §2

crabgrass = assay: Test A pre-/postemergence greenhouse test; type: in vivo, Digitaria sanguinalis; conditions: for Plant response rating, Crabgrass, Large: 0 to 100 scale where 0 is no effect and 100 is complete control; for Crabgrass, Large plant response rating: 0 to 100 scale
Summary of the method: as §2

rice = assay: Test C flooded paddy test; type: in vivo, Oryza sativa; conditions: Flood
Summary of the method: as §1

wheat = assay: Test A pre-/postemergence greenhouse test; type: in vivo, Triticum aestivum; conditions: for Plant response rating, Wheat: 0 to 100 scale where 0 is no effect and 100 is complete control; for Wheat plant response rating: 0 to 100 scale
Summary of the method: as §2

duck salad = assay: Test C flooded paddy test; type: in vivo, Heteranthera limosa; conditions: Flood
Summary of the method: as §1

[3] = 31 g ai/ha, scale 0 to 100 (0 no effect, 100 complete control)
[4] = 62 g ai/ha, scale 0 to 100, 0 no effect, 100 complete control, 13 to 15 days
[5] = 125 g ai/ha, scale 0 to 100, 0 no effect, 100 complete control, 13 to 15 days
[6] = 250 g ai/ha, scale 0 to 100, 0 no effect, 100 complete control, 13 to 15 days
[7] = Postemergence, 500 g ai/ha, 0 is no effect, 100 is complete control
[8] = Preemergence, 125 g ai/ha, 0 no effect, 100 complete control

## Cc1cc[n+]([O-])c(S(=O)(=O)C(Cl)c2c(C(F)(F)F)nn(CC(F)(F)F)c2Cl)c1 (stereo not shown) [Compound 56]
Barnyardgrass [1]; [3]
  Plant response rating, Barnyardgrass: 0
Barnyardgrass [1]; [4]
  Plant response rating, Barnyardgrass: 0
Barnyardgrass [1]; [5]
  Plant response rating, Barnyardgrass: 0
Barnyardgrass [1]; [6]
  Plant response rating, Barnyardgrass: 20
Umbrella sedge; [3]
  Plant response rating, Sedge, Umbrella: 0
Umbrella sedge; [5]
  Plant response rating, Sedge, Umbrella: 45
Umbrella sedge; [6]
  Plant response rating, Sedge, Umbrella: 55
Barnyardgrass [2]; Postemergence, 125 g ai/ha
  Plant response rating, Barnyardgrass: 0
Barnyardgrass [2]; [7]
  Barnyardgrass plant response rating: 50
Barnyardgrass [2]; [8]
  Barnyardgrass plant response rating: 0
Barnyardgrass [2]; Preemergence, 500 g ai/ha
  Plant response rating, Barnyardgrass: 70
corn; Postemergence, 125 g ai/ha
  Plant response rating, Corn: 0
corn; [7]
  Corn plant response rating: 0
corn; [8]
  Corn plant response rating: 0
corn; Preemergence, 500 g ai/ha
  Plant response rating, Corn: 0
morningglory; Postemergence, 125 g ai/ha
  Plant response rating, Morningglory: 0
morningglory; [7]
  Morningglory plant response rating: 10
morningglory; [8]
  Morningglory plant response rating: 0
morningglory; Preemergence, 500 g ai/ha
  Plant response rating, Morningglory: 0
velvetleaf; Postemergence, 125 g ai/ha
  Plant response rating, Velvetleaf: 0
velvetleaf; [7]
  Velvetleaf plant response rating: 0
velvetleaf; [8]
  Velvetleaf plant response rating: 0
velvetleaf; Preemergence, 500 g ai/ha
  Plant response rating, Velvetleaf: 40
Giant foxtail; Postemergence, 125 g ai/ha
  Plant response rating, Foxtail, Giant: 0
Giant foxtail; [7]
  Foxtail, Giant plant response rating: 50
Giant foxtail; [8]
  Foxtail, Giant plant response rating: 30
Giant foxtail; Preemergence, 500 g ai/ha
  Plant response rating, Foxtail, Giant: 90
Redroot pigweed; Postemergence, 125 g ai/ha
  Plant response rating, Pigweed: 0
Redroot pigweed; [7]
  Pigweed plant response rating: 20
Redroot pigweed; Preemergence, 500 g ai/ha
  Plant response rating, Pigweed: 100
crabgrass; Postemergence, 125 g ai/ha
  Plant response rating, Crabgrass, Large: 0
crabgrass; [7]
  Crabgrass, Large plant response rating: 50
crabgrass; [8]
  Crabgrass, Large plant response rating: 20
crabgrass; Preemergence, 500 g ai/ha
  Plant response rating, Crabgrass, Large: 80
rice; [3]
  Plant response rating, Rice: 0
rice; [4]
  Plant response rating, Rice: 0
rice; [5]
  Plant response rating, Rice: 0
rice; [6]
  Plant response rating, Rice: 0
wheat; Postemergence, 125 g ai/ha
  Plant response rating, Wheat: 0
wheat; [7]
  Wheat plant response rating: 0
wheat; [8]
  Wheat plant response rating: 0
wheat; Preemergence, 500 g ai/ha
  Plant response rating, Wheat: 0
Duck salad; [3]
  Plant response rating, Ducksalad: 0
Duck salad; [4]
  Plant response rating, Ducksalad: 40
Duck salad; [5]
  Plant response rating, Ducksalad: 85
Duck salad; [6]
  Plant response rating, Ducksalad: 100

## O=S(=O)(Cc1c(C(F)(F)F)nn(CC(F)(F)F)c1Cl)c1cccc[n+]1[O-] [Compound 44]
Barnyardgrass [1]; [4]
  Plant response rating, Barnyardgrass: 0
Barnyardgrass [1]; [6]
  Plant response rating, Barnyardgrass: 0
Umbrella sedge; [6]
  Plant response rating, Sedge, Umbrella: 50
Barnyardgrass [2]; Postemergence, 125 g ai/ha
  Plant response rating, Barnyardgrass: 70
Barnyardgrass [2]; [7]
  Barnyardgrass plant response rating: 80
Barnyardgrass [2]; [8]
  Barnyardgrass plant response rating: 70
Barnyardgrass [2]; Preemergence, 500 g ai/ha
  Plant response rating, Barnyardgrass: 90
corn; Postemergence, 125 g ai/ha
  Plant response rating, Corn: 0
corn; [7]
  Corn plant response rating: 0
corn; [8]
  Corn plant response rating: 0
corn; Preemergence, 500 g ai/ha
  Plant response rating, Corn: 0
morningglory; Postemergence, 125 g ai/ha
  Plant response rating, Morningglory: 10
morningglory; [7]
  Morningglory plant response rating: 40
morningglory; [8]
  Morningglory plant response rating: 0
morningglory; Preemergence, 500 g ai/ha
  Plant response rating, Morningglory: 60
velvetleaf; Postemergence, 125 g ai/ha
  Plant response rating, Velvetleaf: 0
velvetleaf; [7]
  Velvetleaf plant response rating: 30
velvetleaf; [8]
  Velvetleaf plant response rating: 0
velvetleaf; Preemergence, 500 g ai/ha
  Plant response rating, Velvetleaf: 30
Giant foxtail; Postemergence, 125 g ai/ha
  Plant response rating, Foxtail, Giant: 70
Giant foxtail; [7]
  Foxtail, Giant plant response rating: 80
Giant foxtail; [8]
  Foxtail, Giant plant response rating: 90
Giant foxtail; Preemergence, 500 g ai/ha
  Plant response rating, Foxtail, Giant: 100
Redroot pigweed; Postemergence, 125 g ai/ha
  Plant response rating, Pigweed: 0
Redroot pigweed; [7]
  Pigweed plant response rating: 10
Redroot pigweed; [8]
  Pigweed plant response rating: 0
Redroot pigweed; Preemergence, 500 g ai/ha
  Plant response rating, Pigweed: 100
crabgrass; Postemergence, 125 g ai/ha
  Plant response rating, Crabgrass, Large: 70
crabgrass; [7]
  Crabgrass, Large plant response rating: 80
crabgrass; [8]
  Crabgrass, Large plant response rating: 60
crabgrass; Preemergence, 500 g ai/ha
  Plant response rating, Crabgrass, Large: 100
rice; [4]
  Plant response rating, Rice: 0
rice; [6]
  Plant response rating, Rice: 30
wheat; Postemergence, 125 g ai/ha
  Plant response rating, Wheat: 0
wheat; [7]
  Wheat plant response rating: 0
wheat; [8]
  Wheat plant response rating: 0
wheat; Preemergence, 500 g ai/ha
  Plant response rating, Wheat: 20
Duck salad; [4]
  Plant response rating, Ducksalad: 0
Duck salad; [6]
  Plant response rating, Ducksalad: 40
